For data set [1], the system named is Trypanosoma brucei brucei. As to the kind of experiment: Antitrypanosomal activity against Trypanosoma brucei brucei. In kind it is functional, organism-based.
The test system of data set [2] is MDR1 (P-gp). Nature of the data set: Apparent permeability of the compound across MDCK cells expressing human MDR1 in absence of P-gp inhibitor GF120918. The following applies: dog. In kind it is ADME, cell-based, Canis lupus familiaris.
The test system of data set [3] is Trypanosoma brucei brucei. Nature of the data set: Antitrypanosomal activity against Trypanosoma brucei brucei in nonCNS acute HAT mouse model assessed as cure rate. In kind it is functional.
The subject of data set [4] is MDCK. Nature of the data set: Absorption quotient of the compound across MDCK cells expressing human MDR1. In kind it is ADME, cell-based, Canis lupus familiaris. The following applies: dog.
The test system of data set [5] is L929. As to the kind of experiment: Cytotoxicity against mouse L929 cells. In kind it is cell-based.
A short description of data set [6]: Aqueous solubility of the compound. The class given is physicochemical. The following applies: buffer.
Data set [7] is described as follows: Half life in S9 microsomes. The class given is ADME, subcellular, S9 fraction.
The test system of data set [8] is MDCK. Nature of the data set: Permeability of the compound across MDCK cells expressing human MDR1. In kind it is ADME, cell-based, Canis lupus familiaris. The following applies: dog.
The test system of data set [9] is Trypanosoma brucei brucei. Nature of the data set: Antitrypanosomal activity against Trypanosoma brucei brucei infected in nonCNS acute HAT mouse model assessed as cure rate at 20 mg/kg, po administered after 30 days. In kind it is functional.
The test system of data set [10] is Trypanosoma brucei brucei. As to the kind of experiment: Antitrypanosomal activity against Trypanosoma brucei brucei infected in nonCNS acute HAT mouse model assessed as cure rate at 20 mg/kg, ip administered after 30 days. In kind it is functional. The note with it: route intraperitoneal.

≈ marks a conversion by molar mass, not a printed value.

As for `COc1ccc(F)cc1C(=O)c1cnc(NC2CCN(S(C)(=O)=O)CC2)nc1`, in [1], it took 0.57 µM to reach half-maximal inhibition (IC50). The Papp in data set [2] was 561 nm/s. For the same compound, the Activity in data set [3] worked out at 66%. In [4], this compound returned an AQ of 0.18.

Consider `COc1ccccc1C(=O)c1cnc(NC2CCN(C(=O)Cc3ccccc3)CC2)nc1N`, for which the IC50 in [1] was 0.34 µM; in [5], 20 µM. This compound came in with a solubility in data set [6] of 6 µM (≈ 2.67 µg/mL). The same compound returned a half-life in data set [7] of 0.533 h.

Consider `COc1ccccc1C(=O)c1cnc(NC2CCN(S(=O)(=O)Cc3ccccc3)CC2)nc1N`, for which the IC50 in data set [1] is 0.37 µM; in data set [5], 9.1 µM. In data set [6], this compound came in with a solubility of 2 µM (≈ 0.963 µg/mL). In [7], the half-life was determined as 0.133 h.

`COc1ccccc1C(=O)c1cnc(NC2CCN(C(=O)Nc3ccccc3)CC2)nc1N`: the permeability entry in data set [8] is reported as “impermeable”. Besides, the Activity in data set [9] and in data set [10] was 100% in each case. For the same compound, the IC50 in [1] stood at 0.045 µM; in data set [5], 7.5 µM. In [6], this compound returned a solubility of 25 µM (≈ 11.2 µg/mL). In addition, the Papp in data set [2] is 151 nm/s. In data set [7], the half-life stood at 1.6 h. For the same compound, the AQ in data set [4] was 0.63.

Consider `COc1ccccc1C(=O)c1cnc(NC2CCN(c3nc4ccccc4[nH]3)CC2)nc1N`, for which the values for the IC50 in [1] and in [5] were 0.088 µM and 7.6 µM, respectively. Besides, the concentration in solution in data set [6] (solubility) was 13 µM (≈ 5.77 µg/mL). In [7], this compound displayed a half-life of 1.6 h.

For `COc1ccccc1C(=O)c1cnc(NC2CCN(c3nc4ccccc4n3C)CC2)nc1N`, the IC50 in data set [1] is 1.53 µM; in data set [5], above 22 µM.

Regarding `COc1ccccc1C(=O)c1cnc(NC2CCN(c3nc4ccccc4s3)CC2)nc1N`, the IC50 in data set [1] was 0.29 µM; in [5], 15 µM. For the same compound, the half-life in data set [7] was 0.667 h.

`COc1ccccc1C(=O)c1cnc(NC2CCN(c3nccs3)CC2)nc1N`: the half-inhibitory concentration (IC50) in data set [1] is 3.1 µM; in data set [5], above 24 µM.

On to `COc1ccccc1C(=O)c1cnc(NC2CCN(C(=O)Nc3ccccc3F)CC2)nc1N`, for which the IC50 in data set [1] worked out at 0.13 µM; in [5], 4.1 µM.

On to `COc1ccccc1C(=O)c1cnc(NC2CCN(C(=O)Nc3cccc(F)c3)CC2)nc1N`, for which the values for the IC50 in [1] and in data set [5] were 0.043 µM and 9.3 µM, respectively. For the same compound, in data set [6], the concentration in solution (solubility) was 13 µM (≈ 6.04 µg/mL). In data set [7], this compound had a half-life of 2.82 h.

As for `COc1ccccc1C(=O)c1cnc(NC2CCN(C(=O)Nc3ccc(F)cc3)CC2)nc1N`, the IC50 in data set [1] came out at 0.065 µM; in data set [5] it was 4.6 µM. In addition, the concentration in solution in data set [6] (solubility) was 25 µM (≈ 11.6 µg/mL). In data set [7], this compound returned a half-life of 2.53 h.

As to `COc1ccccc1C(=O)c1cnc(NC2CCN(C(=O)Nc3ccccc3C)CC2)nc1N`, the IC50 in data set [1] turned out to be 0.41 µM; in [5], 10 µM.

As to `COc1ccccc1C(=O)c1cnc(NC2CCN(C(=O)Nc3cccc(C)c3)CC2)nc1N`, the IC50 in [1] worked out at 0.11 µM; in [5] it was 7.1 µM.

Regarding `COc1ccccc1C(=O)c1cnc(NC2CCN(C(=O)Nc3ccc(C)cc3)CC2)nc1N`, the IC50 in data set [1] was found to be 0.11 µM; in [5], 2.9 µM.

As for `COc1ccccc1NC(=O)N1CCC(Nc2ncc(C(=O)c3ccccc3OC)c(N)n2)CC1`, the IC50 in [1] was determined as 0.19 µM; in data set [5], 1.2 µM.

As to `COc1cccc(NC(=O)N2CCC(Nc3ncc(C(=O)c4ccccc4OC)c(N)n3)CC2)c1`, the IC50 in data set [1] is 0.29 µM; in [5], 6.9 µM.

On to `COc1ccc(NC(=O)N2CCC(Nc3ncc(C(=O)c4ccccc4OC)c(N)n3)CC2)cc1`, for which the values for the 50% inhibitory concentration (IC50) in [1] and in data set [5] were 0.36 µM and 3.4 µM, respectively.

In the case of `COc1ccccc1C(=O)c1cnc(N[C@H]2CC[C@@H](C(=O)Nc3ccccc3)CC2)nc1N`, the half-inhibitory concentration (IC50) in data set [1] was above 11 µM; in data set [5], above 22 µM.

With `COc1ccccc1C(=O)c1cnc(N[C@H]2CC[C@H](C(=O)Nc3ccccc3)CC2)nc1N`, the IC50 in [1] and in data set [5] was 4.6 µM in each case.

Turning to `COc1ccccc1C(=O)c1cnc(NCCCNC(=O)Nc2ccccc2)nc1N`, the figures for the IC50 in data set [1] and in [5] were 4.5 µM and 11 µM, respectively.

For the compound `COc1ccccc1C(=O)c1cnc(N2CCN(C(=O)Nc3ccccc3)CC2)nc1N`, the values for the IC50 in data set [1] and in data set [5] were above 12 µM and above 27 µM, respectively.

`COc1ccccc1C(=O)c1cnc(NC2CCN(C(=O)Nc3ccccc3)C2)nc1N` (stereo not drawn): the 50% inhibitory concentration (IC50) was found to be 5.5 µM in [1] and 13 µM in data set [5].

In turn, `CS(=O)(=O)N1CCC(Nc2ncc(C(=O)c3ccccc3)c(N)n2)CC1` gave an IC50 in data set [1] of 7.4 µM.

For the compound `Cc1ccccc1C(=O)c1cnc(NC2CCN(S(C)(=O)=O)CC2)nc1N`, in [1], the IC50 came out at 1.8 µM.

As for `COc1cccc(C(=O)c2cnc(NC3CCN(S(C)(=O)=O)CC3)nc2N)c1`, the IC50 in [1] is 10 µM.

`COc1ccc(C(=O)c2cnc(NC3CCN(S(C)(=O)=O)CC3)nc2N)cc1` displayed an IC50 in data set [1] above 12 µM.

Regarding `COc1ccc(F)cc1C(=O)c1cnc(NC2CCN(C(=O)Nc3ccccc3)CC2)nc1N`, half-maximal inhibition in data set [1] (IC50) was put at 0.03 µM.

Regarding `CCc1ccccc1C(=O)c1cnc(NC2CCN(C(=O)Nc3ccccc3)CC2)nc1N`, the IC50 in [1] turned out to be 0.17 µM. This IC50 lies about 5.7-fold higher than the previous one.

For `CCOc1ccccc1C(=O)c1cnc(NC2CCN(C(=O)Nc3ccccc3)CC2)nc1N`, the half-inhibitory concentration (IC50) in data set [1] came out at 0.26 µM.

On to `COc1ccccc1C(=O)c1cnc(NC2CCN(C(=O)Nc3ccccc3)CC2)nc1`, for which, in [1], the IC50 turned out to be 0.33 µM. Also, the Papp in [2] was 398 nm/s. Also, the Activity in data set [3] is 33%. Further, the half-life in [7] came out at 2.8 h. The compound further came in with an AQ in data set [4] of 0.14.

Take `COc1ccccc1C(=O)c1cnc(NC2CCN(C(=O)Nc3ccccc3)CC2)nc1C`: in data set [1], inhibition was half-maximal at 1.6 µM (IC50). In data set [7], this compound displayed a half-life of 1.22 h.

`COc1ccccc1C(=O)c1cnc(NC2CCN(c3nc4ccccc4[nH]3)CC2)nc1` yielded a concentration for half-maximal inhibition (IC50) in data set [1] of 0.31 µM. The Papp in [2] was found to be 114 nm/s. The half-life in data set [7] turned out to be 0.75 h. Moreover, in [4], the AQ is given as 0.77.

In data set [1], `COc1ccccc1C(=O)c1cnc(NC2CCN(S(C)(=O)=O)CC2)nc1` returned an IC50 of 1.8 µM. Besides, in [7], the half-life came out at 3.72 h.

As to `COc1ccccc1C(=O)c1cnc(NC2CCN(S(C)(=O)=O)CC2)nc1C`, in [1], the IC50 is above 12 µM. In [7], this compound registered a half-life of 7.23 h.

With `COc1ccccc1C(=O)c1cnc(NC2CCN(S(C)(=O)=O)CC2)nc1N`, the permeability result in [8] is reported as “impermeable”. The Activity in [9] and in data set [10] was 100% throughout. The IC50 was 0.66 µM in [1] and 11 µM in data set [5]. The solubility in data set [6] came out at 50 µM (≈ 20.3 µg/mL). In [7], this compound registered a half-life above 5.83 h.

For `COc1ccccc1C(=O)c1cnc(NC2CCN(C(C)=O)CC2)nc1N`, the IC50 in data set [1] was 3.3 µM; in data set [5], above 27 µM.

Consider `COc1ccc(F)cc1C(=O)c1cnc(NC2CCN(S(C)(=O)=O)CC2)nc1N`, for which the permeability result in [8] is reported as “impermeable”. Moreover, the Activity in data set [9] and in data set [10] was 100% in each case. In [1], this compound yielded a concentration for half-maximal inhibition (IC50) of 0.17 µM. For the same compound, the Papp in [2] amounted to 272 nm/s. Further, in [7], the half-life was above 5.83 h. Moreover, the AQ in data set [4] worked out at 0.49.

On to `COc1ccccc1C(=O)c1cnc(NC2CCNCC2)nc1N`, for which the IC50 in [1] was above 14 µM.

Values taken from ChEMBL document CHEMBL1795343, “SAR of 2-amino and 2,4-diamino pyrimidines with in vivo efficacy against Trypanosoma brucei” (Bioorg Med Chem Lett, 2011).
